Test results reported in patent US20210038577A1, “THIOREDOXIN REDUCTASE INHIBITORS FOR USE IN THE TREATMENT OF CANCER” (Cinda Pharma AB, priority 2018, published 2021).

Experiments:
GR from baker's yeast = target: T1, GR from baker's yeast (Saccharomyces cerevisiae, UniProt P41921); assay: Glutathione reductase (GR) activity assay; format: biochemical; conditions: Molar concentration
T1 sequence (P41921 17-483 limits assumed): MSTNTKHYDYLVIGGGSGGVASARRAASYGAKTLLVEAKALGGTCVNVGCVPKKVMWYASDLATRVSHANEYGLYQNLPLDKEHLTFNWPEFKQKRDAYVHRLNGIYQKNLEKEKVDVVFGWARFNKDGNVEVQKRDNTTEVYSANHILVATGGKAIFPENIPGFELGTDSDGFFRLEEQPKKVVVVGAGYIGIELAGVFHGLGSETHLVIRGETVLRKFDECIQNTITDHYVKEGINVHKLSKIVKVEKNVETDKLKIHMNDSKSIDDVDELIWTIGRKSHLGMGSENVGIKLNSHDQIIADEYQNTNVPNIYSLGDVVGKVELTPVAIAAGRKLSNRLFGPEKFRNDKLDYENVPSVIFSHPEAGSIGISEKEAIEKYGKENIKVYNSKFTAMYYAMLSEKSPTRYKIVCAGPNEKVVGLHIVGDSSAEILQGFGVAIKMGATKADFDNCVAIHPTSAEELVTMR
Experimental: GR activity was determined incubating compounds at various concentrations with GR from baker's yeast and 250 μM NADPH for 15 minutes, whereupon 10 mM oxidized glutathione (GSSG) was added to each well and NADPH consumption was followed at OD340. Activity was determined following the consumption of NADPH over time and normalized to DMSO only (Vehicle) and GR lacking (blank) controls.

[1] = system: NB-4 (a leukaemia cell line); assay: MTT cell viability assay, NB-4; format: cell-based; conditions: 72 hrs
Experimental: (§1) MDA-MB-453 (ATCC HTB-131) cells were grown in media with sodium pyruvate. MDA-MB-231 cells (ATCC HTB-26) were grown in DMEM media or L-15 supplemented with Glutamax (1×). U87-MG (ATCC HTB-14) and MDA-MB-468 (ATCC HTB-132) cells were cultured in DMEM supplemented with Glutamax (1×). NB-4 (DSMZ ACC-207) cells were cultured in RPMI 1640.
(§2) Breast cancer and glioblastoma cell lines were plated 4000 cells/well in 96-well plates in the presence of 10% FBS media. The following day cells were treated with various concentrations of the example compounds (0.1% DMSO final) and incubated for 72 hrs. After the incubation an MTT assay was performed to access cell viability. Percent of viability was determined using DMSO vehicle and no cell (blank) controls.

Trx in MDA-MB-231 cells = assay: Intracellular Trx levels by ELISA in MDA-MB-231 tumor cells; format: cell-based, human
Experimental: The human mammary carcinoma cell line MDA-MB-231 was obtained from the American Type Culture Collection (ATCC; Manassas, Va.) and cultured in Leibovitz's L-15 medium (Thermo Fisher Scientific, USA) supplemented with 10% (v/v) heat-inactivated fetal bovine serum (Thermo Fisher Scientific, USA), 10 mM HERBS (Sigma), 25 mM sodium bicarbonate (Sigma), 1× Glutamax (Sigma), 100 IU/mL penicillin and 100 μg/ml streptomycin (Sigma) in a 5% CO2 atmosphere at 37° C. Briefly, cells were seeded at 7500 cells/well in 96-well plates. After 24 h, the cells were treated either with different concentrations of test compounds or DMSO (0.5%; vehicle control) respectively and further incubated at 37° C. in a CO2 incubator. Culture supernatants were collected at different time points, like, immediately after cell plating (−24 h), 0 h (at the time of compound addition), and 1 h, 6 h, 12 h, 24 h, 48 h, 72 h and 96 h following compound addition. Subsequently, cells were lysed from corresponding wells with 0.1% Triton X-100 and the lysates were collected. Trx levels were measured in both the culture supernatants and cell lysates by ELISA using TXN (Human) ELISA Kit [Abnova; Cat no: KA0535] following manufacturer instruction. A standard curve was prepared using different concentrations of the Trx standard (provided in the kit) with the help of GraphPad Prism software (version 5.0; La Jolla, Calif., USA). Trx concentrations for the unknown samples were calculated from the standard curve. The data were expressed as the means of three replicates.

recombinant TrxR [2] = target: T2, recombinant TrxR (Rattus norvegicus, UniProt O89049); assay: Sec-independent SecTRAP activity (Juglone assay); conditions: compound at the concentration that achieves 100% inhibition of TrxR in the DTNB assay
T2 sequence (O89049 1-499): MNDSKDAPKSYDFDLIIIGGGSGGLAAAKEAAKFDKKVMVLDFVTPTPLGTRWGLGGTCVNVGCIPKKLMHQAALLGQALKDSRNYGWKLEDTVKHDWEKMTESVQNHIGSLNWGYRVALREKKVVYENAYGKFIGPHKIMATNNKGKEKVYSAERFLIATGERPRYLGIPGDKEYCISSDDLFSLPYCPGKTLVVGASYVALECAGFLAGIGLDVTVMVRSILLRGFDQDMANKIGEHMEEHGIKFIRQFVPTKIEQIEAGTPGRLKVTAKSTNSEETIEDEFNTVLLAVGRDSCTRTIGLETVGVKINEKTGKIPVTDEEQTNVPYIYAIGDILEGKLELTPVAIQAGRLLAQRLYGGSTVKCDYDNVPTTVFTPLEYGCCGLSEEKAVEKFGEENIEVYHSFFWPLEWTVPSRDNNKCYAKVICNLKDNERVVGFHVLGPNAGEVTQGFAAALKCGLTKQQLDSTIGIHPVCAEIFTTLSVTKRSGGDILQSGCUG
Experimental: (§3) SecTRAP forming capabilities of compounds with TrxR was determined using the Juglone Assay. Compounds were incubated in the presence of recombinant TrxR and 250 μM NADPH for 15 minutes at concentrations fully inhibiting enzyme activity in the DTNB assay. 100 μM juglone was then added to each well and NADPH consumption was followed at OD340 to determine sustained reductive capacity at the N-terminus of TrxR (SecTRAP Activity). Activity was determined following the consumption of NADPH over time and normalized to DMSO only (Vehicle) and TrxR lacking (blank) controls.
(§4) Aliquots were used in a DTNB assay to determine inhibition of enzyme activity. […] Incubation samples were then added to a reaction buffer containing 250 μM NADPH and 100 μM juglone, whereupon NADPH consumption was followed at OD340 to determine sustained SecTRAP activity.
(§5) Higher % values for juglone activity (juglone reduction activity) in this assay are indicative of stronger prooxidant activity.

MDA-MB-231 cells = assay: Alamar-Blue cell viability assay; format: cell-based, human; conditions: 72 hrs
Experimental: MDA-MB-231 cells were plated 2000 cells/well in 96-well black optical plates in the presence of 10% FBS media containing 25 nM selenite. The following day cells were treated with various concentrations of compounds (0.1% DMSO final) and incubated for 72 hrs. After the incubation Alamar Blue reagent was added to each well and incubated for additional 3 hrs. Fluorescence was read ex:530 nm/em:590 nm, and percent of viability was determined using DMSO vehicle and no cell (blank) controls.

[3] = system: MDA-MB-468 (a breast cancer cell line); assay: MTT cell viability assay, MDA-MB-468; format: cell-based; conditions: 72 hrs
Experimental: as §1, §2

[4] = system: U-87 MG (a glioblastoma cell line); assay: MTT cell viability assay, U-87 MG; format: cell-based; conditions: 72 hrs
Experimental: as §1, §2

[5] = system: MDA-MB-231 (a breast cancer cell line); assay: MTT cell viability assay, MDA-MB-231; format: cell-based, human; conditions: 72 hrs
Experimental: as §1, §2

recombinant TrxR [6] = target: T2, recombinant TrxR
Experimental: as §3, §4, §5

Row | SMILES | IC50 (GR from baker's yeast) [µM] | IC50 [1] [µM] | Juglone Act (% @ 100% DTNB inhibition) (recombinant TrxR [2]) [%] | time after which intracellular Trx is reduced compared with control cells (Trx in MDA-MB-231 cells; at 1 μM) [h] | intracellular levels of Trx compared with control cells (Trx in MDA-MB-231 cells; at 1 μM and 10 μM) | time after which intracellular Trx is reduced compared with control cells (Trx in MDA-MB-231 cells; at 10 μM) [h] | time after which intracellular Trx is reduced compared with control cells (Trx in MDA-MB-231 cells; at 1 μM and 10 μM) [h] | further results
1 | O=C1C=C[C@H]2[C@@H]3C(=O)N(Cc4ccccc4)C(=O)[C@@H]3[C@@H]1N2Cc1ccccc1 (relative stereo) [OT-2056, exo-4,11-Dibenzyl-4,11-diazatricyclo[5.3.1.0^2,6]undec-9-ene-3,5,8-trione] | > 30 | 0.42 | 107.692 | 24 | reduced | 6 |  | 
2 | CC(=O)OC[C@H]1O[C@@H]([S-])[C@H](OC(C)=O)[C@@H](OC(C)=O)[C@@H]1OC(C)=O.CCP(CC)CC.[Au+] [Auranofin, reference compound] | > 30 |  |  |  |  |  |  | IC50 (MDA-MB-231 cells): 1.4 µM; IC50 [3]: 0.31 µM; IC50 [4]: 1.72 µM; IC50 [5]: 1.66 µM; classification as SecTRAP forming agent (recombinant TrxR [6]): SecTRAP-forming agent
3 | CC[S+]([O-])c1nc(OC)ccc1[N+](=O)[O-] (stereo not drawn) [OT-1131, 2-(ethylsulfinyl)-6-methoxy-3-nitropyridine] |  |  |  |  | reduced |  | ≤ 6 | 

More lines, main results first:

Row | IC50 (GR from baker's yeast) [µM] | IC50 [1] [µM] | Juglone Act (% @ 100% DTNB inhibition) (recombinant TrxR [2]) [%] | SMILES | time after which intracellular Trx is reduced compared with control cells (Trx in MDA-MB-231 cells; at 1 μM) [h] | intracellular levels of Trx compared with control cells (Trx in MDA-MB-231 cells; at 1 μM and 10 μM) | time after which intracellular Trx is reduced compared with control cells (Trx in MDA-MB-231 cells; at 10 μM) [h] | time after which intracellular Trx is reduced compared with control cells (Trx in MDA-MB-231 cells; at 1 μM and 10 μM) [h] | further results
4 | > 30 | 1.17 | 91.16 | COC(=O)CCS(=O)(=O)c1nc(OC)ccc1[N+](=O)[O-] [OT-1113, methyl 3-((6-methoxy-3-nitropyridin-2-yl)sulfonyl)propanoate] | 48 | reduced | 65 |  | 
5 | > 30 |  | 89.8 | COc1ccc([N+](=O)[O-])c(S(=O)(=O)c2ccccn2)n1 [OT-1012, 6-Methoxy-3-nitro-2-(pyridin-2-ylsulfonyl)pyridine] |  |  |  |  | IC50 ([4]; Homo sapiens, U-87 MG): 8.2 µM; intracellular levels of Trx compared with control cells (Trx in MDA-MB-231 cells; at all doses): reduced; time after which intracellular Trx is reduced compared with control cells (Trx in MDA-MB-231 cells; at all doses): 12 h
6 | > 30 | 1.21 | 83.67 | COc1ccc([N+](=O)[O-])c(S(=O)(=O)Cc2ccccc2)n1 [OT-1011, 2-Benzylsulfonyl-6-methoxy-3-nitropyridine] |  | reduced |  | 6 to 12 | 
